Assay results from patent US20180214393A1, “METHODS FOR TREATING CANCER” (RADIUS PHARMACEUTICALS, INC., priority 2015, published 2018).
Structures can show the parent of a compound that is named as a salt.

Test: Phase 1 dose escalation study in healthy postmenopausal women, treatment related AEs, oral daily for 7 days
Type: in vivo
Experimental: The subjects were 40-75 years old with BMI of 18.0-30 kg/m^2. Subjects having evidence of clinically relevant pathology, increased risk of stroke or of history venous thromboembolic events, or use of concomitant medication less than 14 days prior to admission to clinical research center (paracetamol allowed up to 3 days prior) were excluded.
The subjects were treated with placebo or at least one oral dose daily after a light breakfast for 7 days at dose levels of 200 mg, 500 mg, 750 mg and 1000 mg, respectively.

## CCNCCc1ccc(CN(CC)c2cc(OC)ccc2[C@@H]2CCc3cc(O)ccc3C2)cc1 [RAD1901, (6R)-6-(2-(N-(4-(2-(ethylamino)ethyl)benzyl)-N-ethylamino)-4-methoxyphenyl)-5,6,7,8-tetrahydronaphthalen-2-ol dihydrochloride]
200 mg Gr1
  Abdominal discomfort AE, %: (20) %
  Abdominal distension AE, %: (7) %
  Abdominal pain AE, %: (13) %
  Dizziness AE, %: (7) %
  Dyspepsia AE, %: (20) %
  Flatulance AE, %: (13) %
  Headache AE, %: (20) %
  Hiccups AE, %: (7) %
  Hot flush AE, %: (13) %
  Myalgia AE, %: (13) %
  Nausea AE, %: (33) %
  Odynophagia AE, %: (13) %
  Salivary hyper-secretion AE, %: (13) %
  Sensation of a foreign body AE, %: (13) %
  Vomiting AE, %: (13) %
200 mg Gr2
  Abdominal distension AE, %: (7) %
  Abdominal pain AE, %: (13) %
  Myalgia AE, %: (7) %
  Oesophageal pain AE, %: (13) %
500 mg Gr1
  Abdominal distension AE, %: (7) %
  Abdominal pain AE, %: (21) %
  Diarrhoea AE, %: (21) %
  Dizziness AE, %: (14) %
  Dyspepsia AE, %: (36) %
  Dysphagia AE, %: (7) %
  Flatulance AE, %: (14) %
  Headache AE, %: (7) %
  Hiccups AE, %: (29) %
  Hot flush AE, %: (43) %
  Nausea AE, %: (21) %
  Odynophagia AE, %: (7) %
  Oesophageal pain AE, %: (7) %
  Salivary hyper-secretion AE, %: (14) %
  Sensation of a foreign body AE, %: (7) %
  Vomiting AE, %: (7) %
500 mg Gr2
  Dyspepsia AE, %: (14) %
  Dysphagia AE, %: (14) %
  Headache AE, %: (7) %
  Myalgia AE, %: (7) %
  Nausea AE, %: (14) %
  Odynophagia AE, %: (7) %
  Oesophageal pain AE, %: (21) %
  Vomiting AE, %: (36) %
500 mg Gr3
  Vomiting AE, %: (7) %
750 mg Gr1
  Abdominal discomfort AE, %: (13) %
  Abdominal distension AE, %: (13) %
  Abdominal pain AE, %: (13) %
  Dizziness AE, %: (13) %
  Dyspepsia AE, %: (50) %
  Dysphagia AE, %: (38) %
  Flatulance AE, %: (13) %
  Headache AE, %: (38) %
  Hiccups AE, %: (25) %
  Hot flush AE, %: (25) %
  Myalgia AE, %: (13) %
  Nausea AE, %: (25) %
  Oesophageal pain AE, %: (13) %
  Salivary hyper-secretion AE, %: (25) %
750 mg Gr2
  Abdominal discomfort AE, %: (13) %
  Dysphagia AE, %: (13) %
  Nausea AE, %: (13) %
  Vomiting AE, %: (25) %
1000 mg Gr1
  Abdominal distension AE, %: (29) %
  Abdominal pain AE, %: (14) %
  Diarrhoea AE, %: (43) %
  Dizziness AE, %: (14) %
  Dyspepsia AE, %: (14) %
  Headache AE, %: (29) %
